The results in this text go back to publication PMC10428205, “Cytotoxicity of Ruthenium(II) Arene Complexes Containing Functionalized Ferrocenyl β-Diketonate Ligands” (Organometallics, 2023).

Holding throughout (type): cell-based, human
The subject of experiment [1] is MIA PaCa-2. The experiment is described as follows: Chemosensitivity under hypoxic conditions (0.1% O2, 96 h MTT). As to the method: (§1) LogP = Log ( [C]final ) Eqn1
(§2) 96 h Chemosensitivity Studies
(§3) In vitro chemosensitivity tests were performed at both the University of Huddersfield and the Institute of Cancer Therapeutics, Bradford, in a sterile Class II Biological Safety Cabinet fitted with a HEPA filtered laminar airflow.
(§4) Cellular assays were conducted against human pancreatic carcinoma (MIA PaCa-2), human colorectal carcinoma p53-wildtype (HCT116 p53+/+), and human non-cancerous epithelial retinal cells (ARPE-19). The ARPE-19 cells were obtained from the American Type Culture Collection and provided by the University of Huddersfield. All cell lines were routinely maintained as monolayer cultures in appropriate complete medium and maintained in either T-25 or T-75 flasks at 37 °C and 5% CO2. MIA PaCa-2 and ARPE-19 cells were cultured in high glucose DMEM-F12 medium containing 10% foetal calf serum, and HCT116 p53+/+ was cultured in RPMI 1640 supplemented with 10% foetal calf serum. All medium was supplemented with sodium pyruvate (1 mM) and L-glutamine (2 mM), and prior to chemosensitivity studies, cell monolayers were passaged using Trypsin-EDTA and diluted to a concentration of 1 x 10^4 cells/mL. All assays were conducted using 96-well plates, in which […] of the 1 x 10^4 cells/mL cell suspension was added to each well and incubated for 24 h at 37 °C and 5% CO2. […] After mixing well, the absorbance of each well was measured at 540 nm using a ThermoFisher Multiskan FC spectrophotometer microplate reader. Using the blank and 100% cell controls, the % cell viability was determined [(abs. of compound containing wells – abs. media wells)/(abs. 100% cell suspension well control)] and from this the % cell death (100%- % cell viability) was calculated. On a logarithmic scale, the percentage cell death was plotted against the concentration of compound, and from this the half maximal inhibitory concentration (IC50) value was determined. […]

Experiment [2] has as its system HCT116 p53+/+. The experiment is described as follows: 96 h MTT chemosensitivity assay. The method, then:
as §1, §2, §3
Cellular assays were conducted against human pancreatic carcinoma (MIA PaCa-2), human colorectal carcinoma p53-wildtype (HCT116 p53+/+), and human non-cancerous epithelial retinal cells (ARPE-19). The ARPE-19 cells were obtained from the American Type Culture Collection and provided by the University of Huddersfield. All cell lines were routinely maintained as monolayer cultures in appropriate complete medium and maintained in either T-25 or T-75 flasks at 37 °C and 5% CO2. MIA PaCa-2 and ARPE-19 cells were cultured in high glucose DMEM-F12 medium containing 10% foetal calf serum, and HCT116 p53+/+ was cultured in RPMI 1640 supplemented with 10% foetal calf serum. All medium was supplemented with sodium pyruvate (1 mM) and L-glutamine (2 mM), and prior to chemosensitivity studies, cell monolayers were passaged using Trypsin-EDTA and diluted to a concentration of 1 x 10^4 cells/mL. All assays were conducted using 96-well plates, in which […] of the 1 x 10^4 cells/mL cell suspension was added to each well and incubated for 24 h at 37 °C and 5% CO2. After 24 h, 100 mL of drug dilutions (fresh 100 mM stock solutions in DMSO) in media were added to the plates and then incubated for a further 96 h at 37°C and 5% CO2 (48 h + 48 h recovery period were used for the shorter exposures with MIA PaCa-2 cells only). After 96 h, 20 mL MTT (3-(4,5-dimethylthiazol-2-yl)-2,5-diphenyltetrazolium bromide, 5 mg/mL) was added to each well and incubated for 3 h at 37 °C and 5% CO2. All solutions were then removed from the 96-well plates via pipette and […] of DMSO added to each well to dissolve the purple formazan crystals. After mixing well, the absorbance of each well was measured at 540 nm using a ThermoFisher Multiskan FC spectrophotometer microplate reader. Using the blank and 100% cell controls, the % cell viability was determined [(abs. of compound containing wells – abs. media wells)/(abs. 100% cell suspension well control)] and from this the % cell death (100%- % cell viability) was calculated. On a logarithmic scale, the percentage cell death was plotted against the concentration of compound, and from this the half maximal inhibitory concentration (IC50) value was determined. Each of the experiments were performed in triplicate with mean values being stated as the IC50 ± Standard Deviation (SD). […]
All assays were conducted in triplicate.
A general note: Formazan colour is commonly taken as a measure of viable cells.

Experiment [3] relates to ARPE-19. The experiment is described as follows: 96 h MTT chemosensitivity assay, normal cells. The settings on record: normal retinal epithelial cells, ± SD, read-out: IC50 against ARPE-19. The method, then: as §1, §2, §3, §4

For `[NH2][Pt]([NH2])([Cl])[Cl]` [CDDP, cisplatin, reference compound], the IC50 in experiment [1] (MIA PaCa-2, 0.1% O2, 96 h MTT) was greater than 50 µM; in experiment [2] (96 h MTT, ± SD, read-out: IC50 against HCT116 p53+/+), 3.3 ± 0.4 µM; in experiment [3], 6 ± 1 µM. For the same compound, the “fold loss of activity from normoxic to hypoxic conditions” value in experiment [1] (MIA PaCa-2, 21% vs 0.1% O2) is greater than 14 fold. Besides, the “Selectivity index (SI), IC50 ARPE-19 / IC50 HCT116 p53+/+” value in experiment [2] (96 h, * = minimum value as at least one IC50 > 100) is listed as 1.8.
